# According to paper PMC11189555, “Aryl amino acetamides prevent Plasmodium falciparum ring development via targeting the lipid-transfer protein PfSTART1” (Nature Communications, 2024):
# Experiments:
# Format in all cases: cell-based, Plasmodium falciparum
# [1] = system: PopD-D7 M-833 resistant clone (PfSTART1 N309K); assay: Growth inhibition assay (72 h, LDH activity)
# Method in brief: (§1)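 Synchronised ring-stage 3D7-derived clones (0.3-0.6% parasitemia, 2% haematocrit) grown 72 h in compound serial dilutions, some with 0, 0.25 or 2.5 mM glucosamine. Growth read as LDH activity after freeze-thaw (Malstat/NBT, A650), normalised to DMSO and uninfected RBC; EC50 from variable-slope log(inhibitor) fit.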
# [2] = system: PopE-F10 M-833 resistant clone (PfSTART1 N330K); assay: Growth inhibition assay (72 h, LDH activity)
# Method in brief: as §1
# [3] = system: female gametes from mature stage V gametocytes; assay: Dual gamete formation assay: female gamete formation (Pfs25 expression)
# Protocol: The compounds were tested in the P. falciparum Dual Gamete Formation Assay (PfDGFA)[84], fully described in the Supplementary Information. […]
# Dual gamete formation assays. The compounds were tested in the P. falciparum Dual Gamete Formation Assay (PfDGFA) 13. Briefly, mature stage V gametocytes were exposed to compounds for 48 h at 37°C in 384 well plates in gametocyte culture medium (RPMI 1640 supplemented with 25 mM HEPES, 50 μg/mL hypoxanthine, 4.8 g/L NaHCO3, 2 mM L-glutamine, 5% pooled type AB serum, 0.5% Albumax II (Gibco)) under a 1% O2, 3% CO2, 96% N2 environment. Gametogenesis was then triggered by the addition of 10 μL ookinete medium (gametocyte culture medium supplemented with 100 μM xanthurenic acid and 0.27 µg/mL Cy3-labelled anti-Pfs25 antibody) to each well at room temperature. Plates were then cooled on a metal block at 4°C for four min to ensure even cooling and then stabilised for a further 4 min at 28°C. At 20 min post-induction, male gametogenesis was recorded in each well by automated brightfield microscopy using a x4 objective lens and 1.5x magnifier (x6 effective magnification). Afterward, plates were incubated in the dark at room temperature for 24 h and then female gametogenesis recorded in each well by automated fluorescence microscopy (anti-Pfs25-positive cells). All experiments were performed in quadruplicate with DMSO and cabamiquine (DDD107498)17 as negative and positive controls respectively. All data was evaluated in comparison to the positive and negative controls to calculate percentage inhibition of male and female gametocytes, and dose response analysis and IC50 calculation performed using GraphPad Prism. […]
compound,measurement,setting,value
CC(C)(Nc1ccc(Cl)c(S(=O)(=O)N2CCOCC2)c1)C(=O)Nc1ccc(F)c(Cl)c1 [W-991],EC50,"[1]; Plasmodium falciparum, Supplementary Table 1, PopD-D7 (N309K), 72 h, read-out: EC50",> 0.2 µM
same,resistance of the line compared with 3D7,"[1]; PopD-D7 (N309K), Fig 4B",highly resistant
same,(av-uRBC) / (DMSO-uRBC) x100,"[1]; PopD-D7, 0.0762079 nM, biological replicate 1",96.5635
same,(av-uRBC) / (DMSO-uRBC) x100,"[1]; PopD-D7, 0.0762079 nM, biological replicate 2",102.6
same,(av-uRBC) / (DMSO-uRBC) x100,"[1]; PopD-D7, 0.0762079 nM, biological replicate 3",87.8712
same,(av-uRBC) / (DMSO-uRBC) x100,"[1]; PopD-D7, 0.228624 nM, biological replicate 1",100.291
same,(av-uRBC) / (DMSO-uRBC) x100,"[1]; PopD-D7, 0.228624 nM, biological replicate 2",103.59
same,(av-uRBC) / (DMSO-uRBC) x100,"[1]; PopD-D7, 0.228624 nM, biological replicate 3",90.7443
same,(av-uRBC) / (DMSO-uRBC) x100,"[1]; PopD-D7, 0.685871 nM, biological replicate 1",102.374
same,(av-uRBC) / (DMSO-uRBC) x100,"[1]; PopD-D7, 0.685871 nM, biological replicate 2",101.183
same,(av-uRBC) / (DMSO-uRBC) x100,"[1]; PopD-D7, 0.685871 nM, biological replicate 3",89.0089
same,(av-uRBC) / (DMSO-uRBC) x100,"[1]; PopD-D7, 2.05761 nM, biological replicate 1",98.4575
same,(av-uRBC) / (DMSO-uRBC) x100,"[1]; PopD-D7, 2.05761 nM, biological replicate 2",102.962
same,(av-uRBC) / (DMSO-uRBC) x100,"[1]; PopD-D7, 2.05761 nM, biological replicate 3",86.5214
same,(av-uRBC) / (DMSO-uRBC) x100,"[1]; PopD-D7, 6.17284 nM, biological replicate 1",97.3005
same,(av-uRBC) / (DMSO-uRBC) x100,"[1]; PopD-D7, 6.17284 nM, biological replicate 2",103.791
same,(av-uRBC) / (DMSO-uRBC) x100,"[1]; PopD-D7, 6.17284 nM, biological replicate 3",87.2349
same,(av-uRBC) / (DMSO-uRBC) x100,"[1]; PopD-D7, 18.5185 nM, biological replicate 1",94.5325
same,(av-uRBC) / (DMSO-uRBC) x100,"[1]; PopD-D7, 18.5185 nM, biological replicate 2",103.019
same,(av-uRBC) / (DMSO-uRBC) x100,"[1]; PopD-D7, 18.5185 nM, biological replicate 3",88.7968
same,(av-uRBC) / (DMSO-uRBC) x100,"[1]; PopD-D7, 55.5556 nM, biological replicate 1",87.2483
same,(av-uRBC) / (DMSO-uRBC) x100,"[1]; PopD-D7, 55.5556 nM, biological replicate 2",102.262
same,(av-uRBC) / (DMSO-uRBC) x100,"[1]; PopD-D7, 55.5556 nM, biological replicate 3",77.42
same,(av-uRBC) / (DMSO-uRBC) x100,"[1]; PopD-D7, conc. 166.667 nM, Biological replicate 1 (2021-10-25)",74.488
same,(av-uRBC) / (DMSO-uRBC) x100,"[1]; PopD-D7, conc. 166.667 nM, Biological replicate 2 (2021-11-03)",97.8669
same,(av-uRBC) / (DMSO-uRBC) x100,"[1]; PopD-D7, conc. 166.667 nM, Biological replicate 3 (2021-11-11)",58.6579
same,(av-uRBC) / (DMSO-uRBC) x100,"[1]; PopD-D7, conc. 500 nM, Biological replicate 1 (2021-10-25)",40.3034
same,(av-uRBC) / (DMSO-uRBC) x100,"[1]; PopD-D7, conc. 500 nM, Biological replicate 2 (2021-11-03)",75.4488
same,(av-uRBC) / (DMSO-uRBC) x100,"[1]; PopD-D7, conc. 500 nM, Biological replicate 3 (2021-11-11)",31.855
same,Fold change compared to 3D7,"[1]; Supplementary Table 1, EC50 on PopD-D7 vs 3D7",> 278 fold
same,EC50,"[2]; Plasmodium falciparum, 72 h, Supplementary Table 1, PopE-F10 (N330K), 72 h, read-out: EC50",> 0.2 µM
same,resistance of the line compared with 3D7,"[2]; PopE-F10 (N330K), Fig 4B",highly resistant
same,(av-uRBC) / (DMSO-uRBC) x100,"[2]; PopE-F10, 0.0762079 nM, biological replicate 1",96.1179
same,(av-uRBC) / (DMSO-uRBC) x100,"[2]; PopE-F10, 0.0762079 nM, biological replicate 2",104.725
same,(av-uRBC) / (DMSO-uRBC) x100,"[2]; PopE-F10, 0.0762079 nM, biological replicate 3",92.7129
same,(av-uRBC) / (DMSO-uRBC) x100,"[2]; PopE-F10, 0.228624 nM, biological replicate 1",102.983
same,(av-uRBC) / (DMSO-uRBC) x100,"[2]; PopE-F10, 0.228624 nM, biological replicate 2",105.368
same,(av-uRBC) / (DMSO-uRBC) x100,"[2]; PopE-F10, 0.228624 nM, biological replicate 3",109.575
same,(av-uRBC) / (DMSO-uRBC) x100,"[2]; PopE-F10, 0.685871 nM, biological replicate 1",97.996
same,(av-uRBC) / (DMSO-uRBC) x100,"[2]; PopE-F10, 0.685871 nM, biological replicate 2",105.748
same,(av-uRBC) / (DMSO-uRBC) x100,"[2]; PopE-F10, 0.685871 nM, biological replicate 3",95.4244
same,(av-uRBC) / (DMSO-uRBC) x100,"[2]; PopE-F10, 2.05761 nM, biological replicate 1",96.037
same,(av-uRBC) / (DMSO-uRBC) x100,"[2]; PopE-F10, 2.05761 nM, biological replicate 2",105.199
same,(av-uRBC) / (DMSO-uRBC) x100,"[2]; PopE-F10, 2.05761 nM, biological replicate 3",105.366
same,(av-uRBC) / (DMSO-uRBC) x100,"[2]; PopE-F10, 6.17284 nM, biological replicate 1",97.8882
same,(av-uRBC) / (DMSO-uRBC) x100,"[2]; PopE-F10, 6.17284 nM, biological replicate 2",105.604
same,(av-uRBC) / (DMSO-uRBC) x100,"[2]; PopE-F10, 6.17284 nM, biological replicate 3",97.9523
same,(av-uRBC) / (DMSO-uRBC) x100,"[2]; PopE-F10, 18.5185 nM, biological replicate 1",96.9806
same,(av-uRBC) / (DMSO-uRBC) x100,"[2]; PopE-F10, 18.5185 nM, biological replicate 2",104.615
same,(av-uRBC) / (DMSO-uRBC) x100,"[2]; PopE-F10, 18.5185 nM, biological replicate 3",86.3579
same,(av-uRBC) / (DMSO-uRBC) x100,"[2]; PopE-F10, 55.5556 nM, biological replicate 1",92.6042
same,(av-uRBC) / (DMSO-uRBC) x100,"[2]; PopE-F10, 55.5556 nM, biological replicate 2",99.4928
same,(av-uRBC) / (DMSO-uRBC) x100,"[2]; PopE-F10, 55.5556 nM, biological replicate 3",87.996
same,(av-uRBC) / (DMSO-uRBC) x100,"[2]; PopE-F10, 166.667 nM, biological replicate 1",76.4288
same,(av-uRBC) / (DMSO-uRBC) x100,"[2]; PopE-F10, 166.667 nM, biological replicate 2",88.6391
same,(av-uRBC) / (DMSO-uRBC) x100,"[2]; PopE-F10, 166.667 nM, biological replicate 3",66.2195
same,(av-uRBC) / (DMSO-uRBC) x100,"[2]; PopE-F10, 500 nM, biological replicate 1",33.5999
same,(av-uRBC) / (DMSO-uRBC) x100,"[2]; PopE-F10, 500 nM, biological replicate 2",49.6703
same,(av-uRBC) / (DMSO-uRBC) x100,"[2]; PopE-F10, 500 nM, biological replicate 3",27.1431
same,Fold change compared to 3D7,"[2]; Supplementary Table 1, EC50 on PopE-F10 vs 3D7",> 278 fold
same,inhibition of female gamete formation,"[3]; 1 µM, 48 h treatment of mature gametocytes",no inhibition
same,"Dual Gamete Formation Assay: Female at 1 µM, Mean",[3]; mean of 4 plates,-2.932
